From PubChem BioAssay (NCI)
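Dose response: 5 concentrations. Exposure: 48 h. Format: 96-well plates. Endpoint: linear interpolation; highest concentration if not reached. The concentration for full growth arrest is given as TGI.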

Columns and labels:
Assay in all cases: inhibition of tumour cell growth, NCI panel, 48 h
[1] = test system: SNB-75 CNS
[2] = test system: NCI-H23 lung
[3] = test system: SW-620 colon
[4] = test system: UACC-257 melanoma
[5] = test system: MDA-MB-435
[6] = test system: OVCAR-5 ovarian
[7] = test system: A498 renal
[8] = test system: HS 578T breast
[9] = test system: U251 CNS
[10] = test system: DU-145 prostate
[11] = test system: SF-268 CNS
[12] = test system: ACHN renal
[13] = test system: SK-MEL-5 melanoma
[14] = test system: NCI-H226 lung
[15] = test system: HCC-2998 colon
[16] = test system: SK-MEL-2 melanoma
[17] = test system: MDA-MB-231 breast
[18] = test system: PC-3 prostate
[19] = test system: MOLT-4 leukemia
[20] = test system: HT29 colon
[21] = test system: CCRF-CEM leukemia
[22] = test system: NCI-H522 lung
[23] = test system: A549 NSCLC
[24] = test system: MALME-3M melanoma
[25] = test system: KM12 colon
[26] = test system: MCF7 breast
[27] = test system: EKVX NSCLC
[28] = test system: HOP-92 NSCLC
[29] = test system: HOP-62 NSCLC
[30] = test system: UACC-62 melanoma
[31] = test system: RXF 393 renal
[32] = test system: SNB-19 CNS
[33] = test system: TK-10 renal
[34] = test system: 786-0 renal
[35] = test system: NCI-H460 lung
[36] = test system: OVCAR-3 ovarian
[37] = test system: BT-549 breast
[38] = test system: OVCAR-8 ovarian
[39] = test system: SN12C renal
[40] = test system: SR leukemia
[41] = test system: IGROV1 ovarian
[42] = test system: OVCAR-4 ovarian
[43] = test system: MDA-N
[44] = test system: K-562 leukemia
[45] = test system: SK-OV-3 ovarian
[46] = test system: M14 melanoma
[47] = test system: HCT-15 colon
[48] = test system: CAKI-1 renal
[49] = test system: UO-31 renal
[50] = test system: RPMI-8226 leukemia
[51] = test system: SF-539 CNS
[52] = test system: COLO 205 colon
[53] = test system: NCI/ADR-RES ovarian
[54] = test system: SF-295 CNS
[55] = test system: SK-MEL-28 melanoma
[56] = test system: HL-60(TB) leukemia
[57] = test system: HCT-116 colon
[58] = test system: T-47D breast
[59] = test system: LOX IMVI melanoma

## CCNC(=O)C1CCCN1C(=O)C(CCCN=C(N)N)NC(=O)C(CC(C)C)NC(=O)C(Cc1c[nH]c2ccccc12)NC(=O)C(Cc1ccc(O)cc1)NC(=O)C(CO)NC(=O)C(Cc1c[nH]c2ccccc12)NC(=O)C(Cc1cnc[nH]1)NC(=O)C1CCC(=O)N1 (stereo unspecified)
[1]
  TGI: > 100 µM
[2]
  TGI: > 100 µM
[3]
  TGI: > 100 µM
[4]
  TGI: > 100 µM
[5]
  TGI: > 100 µM
[6]
  TGI: > 100 µM
[7]
  TGI: > 100 µM
[8]
  TGI: > 100 µM
[9]
  TGI: > 100 µM
[10]
  TGI: > 100 µM
[11]
  TGI: > 100 µM
[12]
  TGI: > 100 µM
[13]
  TGI: > 100 µM
[14]
  TGI: > 100 µM
[15]
  TGI: > 100 µM
[16]
  TGI: > 100 µM
[17]
  TGI: > 100 µM
[18]
  TGI: > 100 µM
[19]
  TGI: > 100 µM
[20]
  TGI: > 100 µM
[21]
  TGI: > 100 µM
[22]
  TGI: > 100 µM
[23]
  TGI: > 100 µM
[24]
  TGI: > 100 µM
[25]
  TGI: > 100 µM
[26]
  TGI: > 100 µM
[27]
  TGI: > 100 µM
[28]
  TGI: > 100 µM
[29]
  TGI: > 100 µM
[30]
  TGI: > 100 µM
[31]
  TGI: > 100 µM
[32]
  TGI: > 100 µM
[33]
  TGI: > 100 µM
[34]
  TGI: > 100 µM
[35]
  TGI: > 100 µM
[36]
  TGI: > 100 µM
[37]
  TGI: > 100 µM
[38]
  TGI: > 100 µM
[39]
  TGI: > 100 µM
[40]
  TGI: > 100 µM
[41]
  TGI: > 100 µM
[42]
  TGI: > 100 µM
[43]
  TGI: > 100 µM
[44]
  TGI: > 100 µM
[45]
  TGI: > 100 µM
[46]
  TGI: > 100 µM
[47]
  TGI: > 100 µM
[48]
  TGI: > 100 µM
[49]
  TGI: > 100 µM
[50]
  TGI: > 100 µM
[51]
  TGI: > 100 µM
[52]
  TGI: > 100 µM
[53]
  TGI: > 100 µM
[54]
  TGI: > 100 µM

## COc1c(C)c2nc3ccccc3[nH]c2c2c(=O)ccnc12
[1]
  TGI: 35.1 µM
[2]
  TGI: > 100 µM
[3]
  TGI: > 100 µM
[4]
  TGI: > 100 µM
[5]
  TGI: > 100 µM
[6]
  TGI: > 100 µM
[7]
  TGI: > 100 µM
[8]
  TGI: 78.7 µM
[9]
  TGI: > 100 µM
[55]
  TGI: > 100 µM
[10]
  TGI: > 100 µM
[11]
  TGI: > 100 µM
[12]
  TGI: > 100 µM
[13]
  TGI: > 100 µM
[14]
  TGI: > 100 µM
[15]
  TGI: > 100 µM
[16]
  TGI: > 100 µM
[17]
  TGI: > 100 µM
[56]
  TGI: > 100 µM
[18]
  TGI: > 100 µM
[57]
  TGI: > 100 µM
[19]
  TGI: > 100 µM
[20]
  TGI: > 100 µM
[21]
  TGI: > 100 µM
[22]
  TGI: > 100 µM
[23]
  TGI: > 100 µM
[24]
  TGI: > 100 µM
[25]
  TGI: > 100 µM
[26]
  TGI: > 100 µM
[27]
  TGI: > 100 µM
[28]
  TGI: > 100 µM
[29]
  TGI: > 100 µM
[31]
  TGI: 71.7 µM
[32]
  TGI: > 100 µM
[33]
  TGI: > 100 µM
[34]
  TGI: > 100 µM
[35]
  TGI: > 100 µM
[36]
  TGI: > 100 µM
[38]
  TGI: > 100 µM
[39]
  TGI: > 100 µM
[40]
  TGI: > 100 µM
[41]
  TGI: > 100 µM
[42]
  TGI: > 100 µM
[58]
  TGI: > 100 µM
[43]
  TGI: > 100 µM
[44]
  TGI: > 100 µM
[45]
  TGI: > 100 µM
[46]
  TGI: > 100 µM
[47]
  TGI: > 100 µM
[48]
  TGI: > 100 µM
[49]
  TGI: > 100 µM
[50]
  TGI: > 100 µM
[51]
  TGI: > 100 µM
[52]
  TGI: > 100 µM
[53]
  TGI: > 100 µM
[59]
  TGI: > 100 µM
[54]
  TGI: > 100 µM
